Molecular target: gp120 (Human immunodeficiency virus type 1 group M subtype B, UniProt P04578)
Experiment: competitive ELISA of gp120 binding
Parameters: species or system HIV-1
Settings: as compared to previous double mutant (CD4M8)
Description: In a second step, each putatively active side chain of the miniprotein was replaced by an Ala residue (“Ala scanning”).

SMILES: CC(C)C[C@@H]1NC(=O)CNC(=O)[C@H](CC(C)C)NC(=O)[C@H](CO)NC(=O)[C@H](CCCCN)NC(=O)[C@@H]2CSSC[C@@H](C(=O)NCC(=O)N3CCC[C@H]3C(=O)O)NC(=O)[C@H](C)NC(=O)[C@@H]3CSSC[C@H](NC(=O)[C@H](CCCNC(=N)N)NC(=O)[C@H](C)NC(=O)[C@H](CC(C)C)NC(=O)[C@H](CC(N)=O)NC(=O)[C@@H](N)CSSC[C@H](NC(=O)[C@H](CCCCN)NC(=O)CNC(=O)[C@H](CC(C)C)NC1=O)C(=O)N[C@@H](C)C(=O)NCC(=O)N[C@@H](CO)C(=O)N[C@@H](Cc1ccccc1)C(=O)N3)C(=O)N[C@@H](CCC(N)=O)C(=O)N[C@@H](CC(C)C)C(=O)N[C@@H](CCCNC(=N)N)C(=O)N2 [CD4M9]
- further increase of binding affinity: ten-fold
